The text below walks through data of US9481648B2, “Kinase inhibitors” (Respivert Limited, priority 2013, dated 2016).

The target of one assay is p38 MAPKα (MAPK14) (Homo sapiens (Human), UniProt Q16539). Briefly: p38 MAPKα enzyme inhibition (FRET, Z-LYTE; Method 2). It counts as biochemical. The protocol:
(§1) The enzyme inhibitory activities of compounds disclosed herein are determined by FRET using synthetic peptides labelled with both donor and acceptor fluorophores (Z-LYTE, Invitrogen Ltd., Paisley, UK).
The inhibitory activities of test compounds against the p38 MAPKα isoform (MAPK14: Invitrogen) are evaluated indirectly by determining the level of activation\phosphorylation of the down-stream molecule, MAPKAP-K2. The p38 MAPKα protein (80 ng/mL, 2.5 μL) is mixed with the test compound (2.5 μL of either 4 μg/mL, 0.4 μg/mL, 0.04 μg/mL or 0.004 μg/mL) for 2 hr at RT. […] The mixture is incubated for 1 hr at RT. Development reagent (protease, 5 μL) is added for 1 hr prior to detection in a fluorescence microplate reader (Vanoskan® Flash, ThermoFisher Scientific).
(§2) In all cases, the site-specific protease cleaves non-phosphorylated peptide only and eliminates the FRET signal. Phosphorylation levels of each reaction are calculated using the ratio of coumarin emission (donor) over fluorescein emission (acceptor), for which high ratios indicate high phosphorylation and low ratios indicate low phosphorylation levels.

A further assay has as its target c-Src (Homo sapiens (Human), UniProt P12931). Briefly: c-Src enzyme inhibition (FRET, Z-LYTE). It is filed as biochemical. On the procedure:
as §1
(§3) The relevant enzyme (3000 ng/mL or 2000 ng/mL respectively, 2.5 μL) is incubated with the test compound (either 1 μg/mL, 0.1 μg/mL, 0.01 μg/mL, or 0.001 μg/mL, 2.5 μL each) for 2 hr at RT. The FRET peptides (8 μM, 2.5 μL), and appropriate ATP solutions (2.5 μL, 800 μM for c-Src, and 60 μM ATP for Syk) are then added to the enzymes/compound mixtures and the mixture incubated for 1 hr. Development reagent (protease, 5 μL) is added for 1 hr prior to detection in a fluorescence microplate reader (Varioskan® Flash, ThermoFisher Scientific).
as §2

The next assay addresses GSK 3α (Homo sapiens (Human), UniProt P49840). The assay is described as follows: GSK 3α enzyme inhibition (FRET, Z-LYTE; Method 2). Conditions: read-out: IC50 Values for Enzyme Inhibition GSK3α. It counts as biochemical. The protocol: as §1
The inhibitory activities of compounds of the invention against the GSK 3α enzyme isoform (Invitrogen), are evaluated by determining the level of activation I phosphorylation of the target peptide. The GSK3-α protein (500 ng/mL, 2.5 μL) is mixed with the test compound (2.5 μL at either 4 μg/mL, 0.4 μg/mL, 0.04 μg/mL, or 0.004 μg/mL) for 2 hr at RT. The FRET peptide (8 μM, 2.5 μL), which is a phosphorylation target for GSK3α, and ATP (40 μM, 2.5 μL) are then added to the enzyme\compound mixture and the resulting mixture incubated for 1 hr. Development reagent (protease, 5 μL) is added for 1 hr prior to detection in a fluorescence microplate reader (Varioskan® Flash, ThermoFisher Scientific).
as §2
This method follows the same steps as Method 1 above, but utilises a shorter period of mixing of the test compound (105 minutes instead of 2 hours) with the GSK3-α protein. In addition, the concentrations of test compound employed are either 10 μg/mL, 1 μg/mL, 0.1 μg/mL, or 0.01 μg/mL

Assay [1] deals with β-catenin in d-U937 cells. The assay is described as follows: Accumulation of β catenin in d-U937 cells (assay m). It counts as cell-based, human. The protocol:
U937 cells, a human monocytic cell line, are differentiated into macrophage-type cells by incubation with PMA (100 ng/mL) for between 48 to 72 hr. The cells are then incubated with either final concentrations of test compound or vehicle for 18 hr. The induction of β-catenin by the test compounds is stopped by replacing the media with 4% formaldehyde solution. Endogenous […] is neutralised by incubating with quenching buffer (100 μL, 0.1% sodium azide, 1% H2O2 in PBS with 0.05% Tween-20) for 20 min. The cells are washed with washing buffer (200 μL; PBS containing 0.05% Tween-20) and incubated with blocking solution (200 μL; 5% milk in PBS) for 1 hr, re-washed with washing buffer (200 μL) and then incubated overnight with anti-β-catenin antibody solution (50 μL) in 1% BSA/PBS (BD, Oxford, UK).
After washing with washing buffer (3×200 μL; PBS containing 0.05% Tween-20), cells are incubated with a HRP-conjugated secondary antibody solution (100 μL) in 1% BSA/PBS (Dako, Cambridge, UK) and the resultant signal is determined colourimetrically (OD: 450 nm with a reference wavelength of 655 nm) using TMB substrate (50 μL; R&D Systems, Abingdon, UK). This reaction is stopped by addition of 1N H2SO4 solution (50 μL). Cells are then washed with washing buffer and 2% crystal violet solution (50 μL) is applied for 30 min. After washing with washing buffer (3×200 μL), 1% SDS (100 μL) is added to each well and the plates are shaken lightly for 1 hr prior to measuring the absorbance at 595 nm (Varioskan® Flash, Thermo-Fisher Scientific).
The measured OD450-655 readings are corrected for cell number by dividing the OD450-655 by the OD595 readings.

A further assay deals with Syk (Homo sapiens (Human), UniProt P43405). Briefly: Syk enzyme inhibition (FRET, Z-LYTE). It is filed as biochemical. The protocol:
as §1, §3, §2

Sequence of c-Src (P12931 whole entry, looked up): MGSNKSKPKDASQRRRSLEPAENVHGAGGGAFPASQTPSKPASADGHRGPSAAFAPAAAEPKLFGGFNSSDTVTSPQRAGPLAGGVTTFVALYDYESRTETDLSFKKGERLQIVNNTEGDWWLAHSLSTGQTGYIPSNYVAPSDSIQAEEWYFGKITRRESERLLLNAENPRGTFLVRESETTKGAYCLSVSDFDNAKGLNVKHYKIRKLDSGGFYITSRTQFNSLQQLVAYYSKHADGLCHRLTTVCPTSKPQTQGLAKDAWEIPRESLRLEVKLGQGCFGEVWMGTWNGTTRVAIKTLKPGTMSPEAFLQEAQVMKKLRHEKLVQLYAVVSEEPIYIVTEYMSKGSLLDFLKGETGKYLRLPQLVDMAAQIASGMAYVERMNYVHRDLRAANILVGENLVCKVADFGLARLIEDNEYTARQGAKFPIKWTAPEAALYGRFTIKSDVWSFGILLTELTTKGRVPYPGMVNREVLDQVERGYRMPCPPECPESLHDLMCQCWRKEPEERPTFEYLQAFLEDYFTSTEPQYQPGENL
Sequence of GSK 3α (P49840 whole entry, canonical isoform): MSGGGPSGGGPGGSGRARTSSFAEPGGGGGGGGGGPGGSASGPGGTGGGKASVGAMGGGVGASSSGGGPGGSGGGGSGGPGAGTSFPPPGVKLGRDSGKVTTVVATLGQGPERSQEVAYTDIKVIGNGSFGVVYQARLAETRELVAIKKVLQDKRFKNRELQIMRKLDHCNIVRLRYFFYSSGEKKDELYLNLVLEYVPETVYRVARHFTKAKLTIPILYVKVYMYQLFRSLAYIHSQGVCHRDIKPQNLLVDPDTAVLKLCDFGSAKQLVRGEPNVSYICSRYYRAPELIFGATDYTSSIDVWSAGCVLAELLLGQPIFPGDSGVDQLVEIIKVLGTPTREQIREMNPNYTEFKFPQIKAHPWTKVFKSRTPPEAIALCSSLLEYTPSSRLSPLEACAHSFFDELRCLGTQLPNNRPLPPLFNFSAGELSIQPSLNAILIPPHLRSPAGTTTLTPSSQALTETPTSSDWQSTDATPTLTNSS
Sequence of p38 MAPKα (MAPK14) (Q16539 whole entry): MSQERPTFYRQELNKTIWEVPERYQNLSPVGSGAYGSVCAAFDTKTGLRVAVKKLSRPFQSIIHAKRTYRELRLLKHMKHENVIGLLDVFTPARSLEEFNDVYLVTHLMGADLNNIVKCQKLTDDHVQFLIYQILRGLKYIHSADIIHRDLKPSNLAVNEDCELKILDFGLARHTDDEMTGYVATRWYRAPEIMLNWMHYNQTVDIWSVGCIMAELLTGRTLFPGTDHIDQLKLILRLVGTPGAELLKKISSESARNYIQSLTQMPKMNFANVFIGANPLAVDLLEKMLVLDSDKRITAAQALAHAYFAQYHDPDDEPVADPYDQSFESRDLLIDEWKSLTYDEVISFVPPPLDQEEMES

One may read the IC50 as the concentration at which inhibition is half-maximal. As for `C#Cc1cc(Nc2nccc(Oc3ccc(NC(=O)Nc4cc(F)cc(N5CCOCC5)c4)c4ccccc34)n2)cc(C(=O)NCCN2CCOCC2)c1` [Example 2, 3-Ethynv-5-((4-((4-(3-(3-fluoro-5-morpholinophenyl)ureido)naphthalen-1-yl)oxy)-pyrimidin-2-yl)amino)-N-(2-morpholinoethyl)benzamide], the values for the IC50 against p38 MAPKα (MAPK14), against c-Src and at GSK 3α were 0.037 µM, 0.045 µM and 12.7 µM, respectively. Moreover, the “% β-catenin induction” value is on record as −6% in assay [1] (test compound 1 μg/mL) and −4% in assay [1] (test compound 5 μg/mL).

As for `C#Cc1cc(Nc2nccc(Oc3ccc(NC(=O)Nc4cc(C(C)(C)C)cc(C(=O)NC)c4OC)c4ccccc34)n2)cc(C(=O)NCCN2CCOCC2)c1` [Example 9], the IC50 against c-Src was found to be 0.008 µM; against Syk, 0.027 µM; at GSK 3α it was 1.63 µM. For the same compound, the “% β-catenin induction” value in assay [1] (test compound 1 μg/mL) is on record as 32%; in assay [1] (test compound 5 μg/mL), 48%; in assay [1] (test compound 10 μg/mL), 67%.

On to `COc1c(NC(=O)Nc2ccc(Oc3ccnc(Nc4ccccc4)c3)c3ccccc23)cc(C(C)(C)C)cc1C(=O)NC1CCOCC1` [84(a), 3-[[4-[(2-Anilino-4-pyridyl)oxy]-1-naphthyl]carbamoylamino]-5-tert-butyl-2-methoxy-N-tetrahydropyran-4-yl-benzamide], for which the figures for the IC50 at p38 MAPKα (MAPK14) and at GSK 3α were 0.275 µM and 12.6 µM, respectively.

Turning to `COCCOCCOCCOc1cc(Nc2nccc(Oc3ccc(NC(=O)Nc4cc(C(C)(C)C)cc(C(=O)NCC(=O)OC)c4OC)c4ccccc34)n2)cc(OC)c1` [Example 37, Methyl 2-(5-(tert-butyl)-2-methoxy-3-(3-(4-((2-((3-methoxy-5-(2-(2-(2-methoxyethoxy)-ethoxy)ethoxy)phenyl)amino)pyrimidin-4-yl)oxy)naphthalen-1-yl)ureido)benzamido)-acetate], the results for the IC50 against c-Src, at Syk and on GSK 3α were 0.012 µM, 0.043 µM and 1.52 µM, respectively. Further, the results for the “% β-catenin induction” value in assay [1] (test compound 1 μg/mL), in assay [1] (test compound 5 μg/mL) and in assay [1] (test compound 10 μg/mL) were 4%, 38% and 46%, respectively.

For `COc1cc(Nc2nccc(Oc3ccc(NC(=O)Nc4cc(C(C)(C)C)cc(NS(C)(=O)=O)c4OC)c4ccccc34)n2)cc(OCCOCCOCCN(C)C)c1` [Example 15, N-(5-(tert-Butyl)-3-(3-(4-((2-((3-(2-(2-(2-(dimethylamino)ethoxy)ethoxy)ethoxy)-5-methoxyphenyl)amino)pyrimidin-4-yl)oxy)naphthalen-1-yl)ureido)-2-methoxyphenyl)-methanesulfonamide], the concentration for half-maximal inhibition (IC50) at Syk was 0.237 µM; at GSK 3α it was 0.905 µM. Besides, the figures for the “% β-catenin induction” value in assay [1] (test compound 1 μg/mL), in assay [1] (test compound 5 μg/mL) and in assay [1] (test compound 10 μg/mL) were −2%, −6% and −17%, respectively.

On to `COCCOCCOCCS(=O)(=O)c1cc(Nc2cc(Oc3ccc(NC(=O)Nc4cc(C(C)(C)C)cc(NS(C)(=O)=O)c4OC)c4ccccc34)ccn2)cc(OC)c1` [Example 85(y), 1-[5-tert-Butyl-3-(methanesulfonamido)-2-methoxyphenyl]-3-[4-[2-[3-methoxy-5-[2-[2-(2-methoxyethoxy)ethoxy]ethylsulfonyl]anilino]pyridin-4-yl]oxy-1-naphthyl]urea], for which the IC50 against c-Src was 0.206 µM; on Syk, 1.16 µM; on GSK 3α it was 2.63 µM.

As to `CNC(=O)c1cc(NC(=O)Nc2ccc(Oc3ccnc(Nc4cc(OC)cc(OCCOCCOCCOC)c4)n3)c3ccccc23)cc(C(C)(C)C)c1` [Example 23, 3-(tert-Butyl)-5-(3-(4-((2-((3-methoxy-5-(2-(2-(2-methoxyethoxy)ethoxy)ethoxy)phenyl)-amino)pyrimidin-4-yl)oxy)naphthalen-1-yl)ureido)-N-methylbenzamide], the concentration for half-maximal inhibition (IC50) against Syk was 0.147 µM; at GSK 3α it was 0.733 µM. In addition, the “% β-catenin induction” value is −4% in assay [1] (test compound 1 μg/mL), 10% in assay [1] (test compound 5 μg/mL) and 9% in assay [1] (test compound 10 μg/mL).

For `COc1cc(Nc2nccc(Oc3ccc(NC(=O)Nc4cc(C(C)(C)C)cc(NS(C)(=O)=O)c4OC)c4ccccc34)n2)cc(OCCOCCOCCO)c1` [83(c), N-(5-(tert-butyl)-3-(3-(4-((2-((3-(2-(2-(2-hydroxyethoxy)ethoxy)ethoxy)-5-methoxyphenyl)-amino)pyrimidin-4-yl)oxy)naphthalen-1-yl)ureido)-2-methoxyphenyl)methanesulfonamide], the half-maximal inhibitory concentration (IC50) at GSK 3α was determined as 0.738 µM. For the same compound, the figures for the “% β-catenin induction” value in assay [1] (test compound 1 μg/mL), in assay [1] (test compound 5 μg/mL) and in assay [1] (test compound 10 μg/mL) were 4%, 31% and 33%, respectively.

In the case of `COCCOCCOCCOc1cc(Nc2nccc(Oc3ccc(NC(=O)Nc4cc(C(C)(C)C)cc(C(=O)O)c4OC)c4ccccc34)n2)cc(OC)c1` [Example 21, 5-(tert-Butyl)-2-methoxy-3-(3-(4-((2-((3-methoxy-5-(2-(2-(2-methoxyethoxy)ethoxy)-ethoxy)phenyl)amino)pyrimidin-4-yl)oxy)naphthalen-1-yl)ureido)benzoic acid], at GSK 3α, the half-inhibitory concentration (IC50) amounted to 1.63 µM.

On to `COCCOCCOCCOc1cc(Nc2nccc(Oc3ccc(NC(=O)Nc4cc(C(C)(C)C)cc(C(=O)NC5CC5)c4OC)c4ccccc34)n2)cc(OC)c1` [Example 33, 5-(tert-Butyl)-N-cyclopropyl-2-methoxy-3-(3-(4-((2-((3-methoxy-5-(2-(2-(2-methoxy-ethoxy)ethoxy)ethoxy)phenyl)amino)pyrimidin-4-yl)oxy)naphthalen-1-yl)ureido)-benzamide], for which the IC50 against c-Src stood at 0.011 µM; against Syk it was 0.028 µM; on GSK 3α, 0.828 µM.

On to `COc1cc(Nc2nccc(Oc3ccc(NC(=O)Nc4cc(C(C)(C)C)cc(NS(C)(=O)=O)c4OC)c4ccccc34)n2)cc(OCCOCCOCCC(=O)O)c1` [Example 30, 3-(2-(2-(3-((4-((4-(3-(5-(tert-Butyl)-2-methoxy-3-(methylsulfonamido)phenyl)ureido)-naphthalen-1-yl)oxy)pyrimidin-2-yl)amino)-5-methoxyphenoxy)ethoxy)ethoxy)propanoic acid], for which, at GSK 3α, the IC50 amounted to 0.15 µM.

In the case of `COCCOCCOCCOc1cc(Nc2nccc(Oc3ccc(NC(=O)Nc4cc(N5CCOCC5)ccc4OC)c4ccccc34)n2)cc(OC)c1` [Example 12, 1-(4-((2-((3-Methoxy-5-(2-(2-(2-methoxyethoxy)ethoxy)ethoxy)phenyl)amino)-pyrmidin-4-yl)oxy)naphthalen-1-yl)-3-(2-methoxy-5-morpholinophenyl)urea], the concentration for half-maximal inhibition (IC50) at GSK 3α was 11.3 µM.
